The subject of one data set is BV-2. Kind of data set: Inhibition of LPS-stimulated NO production in […] cells after 24 hrs by Griess assay. To be noted: Mus musculus, BV-2, 24 h. The data set is classed as functional, cell-based. (In general: Nitrite, measured by Griess reagent, commonly stands in for NO production.)
The nature of data set [1]: Cytotoxicity against LPS-stimulated […] cells assessed as cell viability at 40 uM by MTT assay. The data set is classed as cell-based, BV-2. The settings on record: read-out: Activity. On the technique in general: Tetrazolium assays rely on reduction of a dye to a coloured formazan, in cell work by metabolically active cells.

Usually IC50 stands for the midpoint of a concentration-inhibition curve. Higher therefore signals lower potency.

Take `C=C(C(=O)O)[C@@H]1CC[C@H](C)[C@@]2(O)CC(=O)C(C)=C2C1`: in the data set on BV-2, the midpoint of inhibition, the IC50, lay at 28.9 µM. Also, in data set [1], the viability at 40 µM came out at 83.4%.

In the data set with BV-2, `C=C(C(=O)O)[C@@H]1CC[C@H](C)[C@@H]2CC[C@](C)(O)[C@@]2(O)C1` displayed an IC50 of 2.6 µM. For the same compound, the viability at 40 µM in data set [1] worked out at 78.8%.

For `CC1=C2C[C@H](C(=O)O)CC[C@H](C)[C@@H]2CC1=O`, half-maximal inhibition in the data set on BV-2 (IC50) required 8.9 µM. In addition, the viability at 40 µM in data set [1] turned out to be 77.6%.

As to `C=C(C(=O)O)[C@@H]1CC[C@H](C)C2=C(C1)[C@](C)(O)CC2=O`, the half-inhibitory concentration (IC50) in the data set with BV-2 turned out to be 24.7 µM. Also, the viability at 40 µM in data set [1] amounted to 77%.

In the data set with BV-2, `C=C(C(=O)O)[C@@H]1CC[C@H](C)[C@H]2C(=O)C=C(C)[C@]2(O)C1` had a concentration for half-maximal inhibition (IC50) of 20.4 µM. In data set [1], the viability at 40 µM came to 76.1%.

As for `C=C(C(=O)O)[C@@H]1CC[C@H](C)[C@H](CCC(C)=O)C(=O)C1`, in the data set with BV-2, the 50% inhibitory concentration (IC50) stood at 2.2 µM. Besides, in data set [1], the viability at 40 µM was 76.6%.

`O=c1c(O)c(-c2ccc(O)c(O)c2)oc2cc(O)cc(O)c12` [QUERCETIN] yielded an IC50 in the data set on BV-2 of 4.3 µM. Also, the viability at 40 µM in data set [1] came out at 97%.

For the origin of these results see ChEMBL document CHEMBL3351802, “Rupestonic acids B-G, NO inhibitory sesquiterpenoids from Artemisia rupestris” (Bioorg Med Chem Lett, 2014).
